Reference: patent US12410124B2 (priority 2019, dated 2025)

Key:
Assay type in all cases: in vivo
GCLC = assay: Midbrain GCLC expression in MPTP Parkinson's disease model mouse (western blot); settings: for Expression (GCLC/GAPDH): midbrain, MPTP Parkinson's disease model mouse, western blot
Description: (§1) Neurotoxins can be used to establish PD animal models. Currently, 1-methyl-4-phenyl-1,2,3,6-tetrahydropyridine (MPTP) is the sole synthetic toxin which is recognized to induce PD symptoms in human and non-human primates and in mice. Using MPTP subacute modeling method, C57BL/6J male mice were intraperitoneally injected with MPTP 30 mg/kg, once a day for 5 consecutive days. The experiment animals were divided into blank control group, MPTP model group, and compound treatment group. For the […] compound treatment group, the compound was administrated by gavage for 21 consecutive days after the completion of modeling; for the MPTP model group, the normal saline was administrated by gavage for 21 consecutive days after the completion of modeling; and for the blank control group, the normal saline was first intraperitoneally injected for 5 days, and then administrated by gavage for 21 days.
Oxidative stress is an important pathogenic mechanism of PD. Dopaminergic neurons are more sensitive to oxidative stress and are more susceptible to oxidative stress damage. Glutathione (GSH) is an important antioxidant substance in the cell, and glutamate cysteine ligase (GCL) is the rate-limiting enzyme for GSH synthesis, which is composed of catalytic subunit (GCLC) and regulatory subunit (GCLM). The increase of GCLC expression can promote the synthesis of GSH and enhance the ability of tissue cells against oxidative stress. GCL, a phase II enzyme, plays an important protective role by catalyzing the conversion of free radicals into non-toxic products and increasing their water solubility to facilitate the elimination of free radicals, and maintain the redox balance in the body. It plays an important role in the process of protecting cells against oxidative stress damage. The activation of p38 protein phosphorylation has a negative regulatory effect on phase II enzymes. […] Using GCLC as an indicator, the inhibitory effect of the target compounds on MPTP-induced oxidative stress damage in PD mice can be investigated.
GCLC is expressed in astrocytes, microglial cells, and neurons. The total proteins of the midbrain tissue of mice in each experiment group were extracted, to determine the expression of phase II enzyme GCLC in the midbrain of mice by western blot using GAPDH as the internal reference. The experiment included blank control group, MPTP model group, positive control group (caffeic acid phenethyl ester, CAPE), prototype control group (styryl sulfone compounds 3B, 3C, 3D), and 3G, whose structures are shown as above), and target compound group.

substantia nigra pp38 = assay: Substantia nigra pp38 protein expression in MPTP Parkinson's disease model mouse (immunofluorescence); settings: percentage of mean intensity of blank control group, gavage 21 days after MPTP modeling
Description: as §1
(§2) The p38 mitogen-activated protein kinase (p38 MAPK) is expressed in both neurons and glial cells, and is the intersection point of neuron-glial cell network information regulations. The activation of p38 signaling pathway is an important initiator of neuronal degeneration, which continuously induces the apoptosis of dopaminergic neurons in multiple ways. It has become a research hotspot for the treatment of PD. Studies have shown that the protective mechanism of CAPE against the death of primary cultured cerebellar granule neurons induced by glutamate lies in inhibiting the activation of p38 phosphorylation and in turn inhibiting the activation of the caspase 3 apoptotic pathway to prevent neuronal apoptosis. Therefore, the MPTP-induced PD mouse model can be used to investigate the inhibitory effect of the target compounds on the activation of p38 phosphorylation on the overall animal level.
Half of experiment mice in each group were taken to separate the midbrain after perfusion and fixation. The tissue was trimmed, and the substantia nigra-striatum area was taken to prepare paraffin sections. The double immunofluorescence staining for TH and phosphorylated p38 was performed to observe the coexpression of TH and phosphorylated p38, for the statistics of the change in the phosphorylated p38 protein expression. The experiment included blank control group, MPTP model group, positive control group (caffeic acid phenethyl ester, CAPE), prototype control group (styryl sulfone compounds 3B, 3C, 3D, and 3G, whose structures are shown as above), and target compound group.

midbrain CD11b = assay: Midbrain CD11b protein expression in MPTP Parkinson's disease model mouse (western-blotting); settings: for Expression (CD11b/GAPDH): midbrain, MPTP Parkinson's disease model mouse, western-blotting
Description: as §1
Neuron-glial cell network homeostasis disorder is an important factor for the selective and progressive death of substantia nigra dopaminergic neurons in PD. In the neurotoxic effect of MPTP, the excessive activations of microglial cells and astrocytes produce a variety of inflammatory cytokines and reactive oxygen species (ROS). These inflammatory factors and ROS amplify their respective toxicities and mediate malignant feedback loop, causing a cascade inflammation response and aggravating the pathological process of PD. CD11b and GFAP are the marker proteins for activations of microglial cells and astrocytes, respectively. Therefore, the effect of the target compounds on the activations of the microglial cells and astrocytes in the substantia nigra, hippocampus, and midbrain areas of MPTP-induced PD mice can be investigated, to explore the mechanism of the anti-PD effect of the target compounds by inhibiting the neuroinflammation.
[…] The experiment included blank control group, MPTP model group, positive control group (caffeic acid phenethyl ester, CAPE), prototype control group (styryl sulfone compounds 3B, 3C, 3D), and 3G, whose structures are shown as above), and target compound group.

midbrain p-α-s = assay: Midbrain p-α-s protein expression in MPTP Parkinson's disease model mouse (western-blotting); settings: midbrain total protein, GAPDH internal reference, gavage 21 consecutive days after MPTP modeling
Description: as §1
Alpha-synuclein is an “unfolded protein” in its natural state. It exists in a monomeric form, and participates in the physiological functions such as the release of neurotransmitters, the establishment of synaptic junctions, and the regulation of synaptic plasticity. Under pathological conditions, more than 90% of alpha-synuclein is phosphorylated at serine of position 129 and converted into phosphorylated alpha-synuclein (p-α-s), thereby forming Lewy bodies. The formation of Lewy bodies is one of the main pathological manifestations and pathological mechanisms for Parkinson's disease, and plays an important role in the formation and development of PD. The detection of the p-α-s expression in the midbrain and substantia nigra of PD model mice can evaluate the neuroprotective activity of the compound.
(§3) Half of experiment mice in each group were taken to extract the total midbrain protein, and the change in the midbrain P-α-s protein expression was determined by western-blotting using GAPDH as the internal reference. The experiment included blank control group, MPTP model group, positive control group (caffeic acid phenethyl ester, CAPE), prototype control group (styryl sulfone compounds 3B, 3C, 3D, and 3G, whose structures are shown as above), and target compound group.

midbrain pp38 = assay: Midbrain pp38 protein expression in MPTP Parkinson's disease model mouse (western-blotting); settings: midbrain total protein, GAPDH internal reference, gavage 21 days after MPTP modeling
Description: as §1, §2
as §3, with “phosphorylated p38” for “P-α-s”

Row | Compound | Expression (GCLC/GAPDH) (GCLC) | Expression (Immunofluorescence intensity %) (substantia nigra pp38) [%] | Expression (CD11b/GAPDH) (midbrain CD11b) | Expression (p-α-s/GAPDH) (midbrain p-α-s) | Expression (pp38/GAPDH) (midbrain pp38) | midbrain GCLC expression compared with the styryl sulfone prototype compounds (GCLC) | midbrain CD11b protein expression compared with the styryl sulfone prototype compounds (midbrain CD11b)
1 | O=S(=O)(/C=C/c1ccc(O)c(O)c1)Cc1ccc(C(F)(F)F)cc1 [Compound 3B, (E)-4-{2-[(4-trifluoromethylphenyl)mesyl]ethenyl}benzene-1,2-diol, reference compound] | 0.33 ± 0.04 | 134.70 ± 31.07 | 1.31 ± 0.10 | 0.93 ± 0.04 | 1.18 ± 0.08 |  | 
2 | O=S(=O)(/C=C/c1ccc(O)c(O)c1)CCCc1ccccc1 [Compound 3C, (E)-4-{2-[(3-phenylpropyl)sulfonyl]ethenyl}benzene-1,2-diol, reference compound] | 0.34 ± 0.05 | 138.79 ± 27.44 | 1.02 ± 0.13 | 0.92 ± 0.13 | 0.85 ± 0.22 |  | 
3 | O=S(=O)(/C=C/c1ccc(O)c(O)c1)Cc1ccc(Cl)cc1 [Compound 3D, (E)-4-{2-[(4-chlorophenyl)mesyl]ethenyl}benzene-1,2-diol, reference compound] | 0.53 ± 0.04 | 114.68 ± 21.42 | 1.30 ± 0.10 | 0.49 ± 0.12 | 1.00 ± 0.11 |  | 
4 | CC(C)(C)c1ccc(CS(=O)(=O)/C=C/c2ccc(O)c(O)c2)cc1 [Compound 3G, (E)-4-{2-[(4-t-butylphenyl)mesyl]ethenyl}benzene-1,2-diol, reference compound] | 0.57 ± 0.09 | 118.25 ± 10.60 | 0.67 ± 0.12 | 0.61 ± 0.08 | 0.69 ± 0.22 |  | 
5 | CC(C)N(c1ccc(CCS(=O)(=O)/C=C/c2ccc(OC(=O)N(C)c3ccc(I)cc3)c(OCCOCc3ccccc3)c2)cc1)C(C)C [Compound A1-3, (E)-2-(2-benzyloxyethoxy)-4-{2-[4-(N,N-diisopropylamino)phenylethylsulfonyl]ethenyl}phenyl-N-(4-iodophenyl)-N-methylcarbamate] | 0.84 ± 0.04 | 58.19 ± 12.07 | 1.12 ± 0.06 | 0.56 ± 0.12 | 0.27 ± 0.08 |  | 
6 | CCN(CC)C(=O)Oc1ccc(/C=C/S(=O)(=O)Cc2ccc(C(F)(F)F)cc2)cc1OC(=O)N(CC)CC [Compound B1-1, (E)-4-{2-[(4-trifluoromethylphenyl)mesyl]ethenyl}-1,2-phenylenebis(diethylcarbamate)] | 1.17 ± 0.06 | 76.35 ± 21.90 | 0.41 ± 0.05 | 0.23 ± 0.12 | 0.37 ± 0.12 | significantly higher | equivalent or lower
7 | CCN(CC)C(=O)Oc1ccc(/C=C/S(=O)(=O)CCCc2ccccc2)cc1OC(=O)N(CC)CC [Compound C1-1, (E)-4-[2-(3-phenylpropylsulfonyl)ethenyl]-1,2-phenylenebis(diethylcarbamate)] | 1.34 ± 0.08 | 108.71 ± 12.51 | 1.11 ± 0.08 | 0.63 ± 0.06 | 0.63 ± 0.06 | significantly higher | equivalent or lower
8 | CCN(CC)C(=O)Oc1ccc(/C=C/S(=O)(=O)Cc2ccc(Cl)cc2)cc1OC(=O)N(CC)CC [Compound D1-1, (E)-4-{2-[(4-chlorophenyl)mesyl]ethenyl}-1,2-phenylenebis(diethylcarbamate)] | 1.29 ± 0.05 | 57.50 ± 15.33 | 0.33 ± 0.05 | 0.42 ± 0.10 | 0.50 ± 0.13 | significantly higher | equivalent or lower
9 | CC(=O)Oc1ccc(/C=C/S(=O)(=O)Cc2c(F)c(F)c(F)c(F)c2F)cc1OC(=O)NC(=O)c1ccc([N+](=O)[O-])c(C)c1 [Compound D5-4, (E)-2-[N-(3-methyl-4-nitrobenzoyl)carbamoyloxy]-4-{2-[(perfluorophenyl)mesyl]ethenyl}phenyl acetate] | 0.97 ± 0.07 | 103.25 ± 15.27 | 1.11 ± 0.10 | 0.64 ± 0.12 | 0.61 ± 0.07 |  | 
10 | CNC(=O)Oc1ccc(/C=C/S(=O)(=O)CC(Cl)c2ccc(Cl)c([N+](=O)[O-])c2)cc1O (stereo not drawn) [Compound E2-2, (E)-4-{2-[2-chloro-2-(4-chloro-3-nitrophenyl)ethylsulfonyl]ethenyl}-2-hydroxyphenyl-N-methylcarbamate] | 1.48 ± 0.11 | 96.01 ± 10.37 | 1.17 ± 0.06 | 0.45 ± 0.07 | 0.43 ± 0.06 |  | 
11 | CCN(CC)C(=O)Oc1ccc(/C=C/S(=O)(=O)Cc2ccc(C(C)(C)C)cc2)cc1OC(=O)N(CC)CC [Compound G1-1, (E)-4-{2-[(4-t-butylphenyl)mesyl]ethenyl}-1,2-phenylenebis(diethylcarbamate)] | 1.05 ± 0.04 | 82.16 ± 8.10 | 0.50 ± 0.06 | 0.34 ± 0.09 | 0.33 ± 0.07 | significantly higher | equivalent or lower
